What was measured:
[1] = tested on: rabbit corneal stromal cells; test: Cell proliferation analysis, rabbit corneal stromal cells; assay type: cell-based; conditions: 1% FBS, with TGF-β1 or b-FGF/HS
Experimental: FIG. 2. Effect of ethyl pyruvate on the growth of rabbit corneal stromal cells. Corneal stromal cells in P2 growing in DMEM/F12 with 10% FBS were subcultured into desired number of 35 mm tissue culture dishes. After 24 hrs of incubation, the media were replaced with DMEM/F12 medium containing 1% FBS without EP (labeled “Control), with EP (labeled “Control+EP”); with the same medium containing TGF-β1 without EP (labeled “TGF-β1”) or with EP (labeled “TGF-β1+EP”); or with the same medium containing b-FGF/HS without EP (labeled “FGF/HS”) or with EP (labeled “FGF/HS+EP”). The cells in several marked regions were counted every 24 hours as described in Methods. […]
To study the effect of EP on cell proliferation, normal human corneal fibroblasts growing in DMEM/F12 with 10% FBS were subcultured into the desired number of 35 mm tissue culture dishes at a density of 5×10^4 cells/per dish. […] Several regions were marked on the bottom of the dishes and cells in marked regions were counted at 24 hr intervals for five days. Phase contrast digital micrographs of the cells in the marked fields were captured and the cells in the images were counted using MetaMorph® imaging software. The rate of proliferation was evaluated by determining the number of cells at specific time points after treatment/number of cells at the start of the treatment. […]

fibronectin [2] = test: Immunocytochemical analysis of fibronectin expression, human stromal cells; assay type: cell-based; conditions: human corneal cells treated with TGF-β1
Experimental: (§1) FIGS. 6A-6B. Immunocytochemical analysis of fibronectin expression. Normal human stromal cells (FIG. 6A) or rabbit corneal stromal cells (FIG. 6B) in P2 growing in DMEM/F12 with 10% FBS were subcultured into 35 mm tissue culture dishes. After 24 hrs of incubation, the media were replaced with DMEM/F12 medium containing 1% FBS and TGF-β1 with or without (control) 10 mM EP and incubated for four days (media were changed every 24 hours). The cells were fixed and double stained for fibronectin (green) and phalloidin (red) using an indirect fluorescence technique as described herein.
(§2) For immunocytochemical analyses, the cells were cultured on glass cover slips or tissue culture dishes. Cells were rinsed with phosphate-buffered saline (PBS), fixed with paraformaldehyde-lysine-periodate and permeabilized with PIPES buffer containing 0.2% Triton X-100, as described previously (Guerriero et al., Invest. Opthalmol. Vis. Sci. 2007; 48: 627-635). Fixed and permeabilized cells were reacted with 10% heat-inactivated goat serum in PBS, pH 7.5, for 45 minutes to block the nonspecific binding of the secondary antibody, rinsed with PBS, and then treated with the primary and secondary antibodies as described previously (Guerriero et al. Invest. Opthalmol. Vis. Sci. 2007; 48: 627-635). Primary antibodies included monoclonal rat anti-α smooth muscle actin (SMA) and anti-fibronectin. […]

fibronectin [3] = test: Immunocytochemical analysis of fibronectin expression, rabbit corneal stromal cells; assay type: cell-based; conditions: rabbit corneal cells treated with TGF-β1
Experimental: as §1, §2

cornea = test: Mouse corneal wound healing and LPS inflammation model, confocal microscopy of corneal thickness and morphology; assay type: in vivo, Mus musculus strain C57
Text: (§3) A mouse model of corneal wound healing and inflammation induced by lipopolysacharide (LPS) was used to test the effect of EP. Khatari et al., Invest. Opthalmol. Vis. Sci. (2002) 43:2278-2284. Briefly, mice (Mus musculus strain C57, age approx. 2 months) were obtained from Charles River Laboratories in accordance with institutional protocols and divided into the following treatment groups (with 3 samples in each group):
(§4) Prior to wounding, all mice were anesthetized with an intraperitoneal injection of 50 mg/kg ketamine with 5 mg/kg xylazine. Topical anesthesia was further achieved with an additional 1 drop of 0.5% proparacaine per eye. Once the animal was sufficiently anesthetized, a corneal wound was constructed in each eye using a sterile 26-gauge needle that penetrated the epithelium and the superficial layers of the stroma. This linear scratch extended from the medial to lateral canthus (FIG. 12). 10 μg of the bacterial super-antigen LPS (Pseudomonas aeruginosa lipopolysaccharide, Sigma) was applied to the wound using a 10 μl pipette and allowed to penetrate the cornea for 5 minutes. Addition of bacterial endotoxin ensured a robust inflammatory response.
The wound was then washed with phosphate buffered saline (PBS/non-pyrogenic dH2O). Following the wash, the EP treatment groups received a 10 μl drop of 5% EP in PBS buffered to physiological pH with HEPES while the control group received PBS alone. Drops were applied to the corneal wound using a pipette and the mice were held by hand in such a way as to retain the drops on the eye for approximately 2 minutes. The delivery and concentration of EP was determined according to Devamanoharan et al. (1999); 200(1-2):103-09. […] Considering this quick absorption with the elimination half-life of EP, which is approximately 90 minutes, EP (500 mM) was applied every 90 minutes over the span of 12 hours during each day, followed by 12 hours of treatment overnight.
Animals were sacrificed and eyes harvested for analysis at 1 and 2 days post-wounding. After sacrificing, but prior to harvesting, eyes were imaged using the NIDEK CONFOSCAN 3® confocal microscope to analyze the morphology of the intact cornea. The images were later reconstructed into three-dimensional images in order to observe gross morphology, measure corneal thickness and light scattering which indicate edema and hypercellularity respectively.

CD-45+ leukocytes = test: Mouse corneal wound model, FACS with pan-leukocyte marker CD-45+; assay type: in vivo, Mus musculus strain C57
Text: as §3, §4
The wound was then washed with phosphate buffered saline (PBS/non-pyrogenic dH2O). […] The delivery and concentration of EP was determined according to Devamanoharan et al. (1999); 200(1-2):103-09. […]

[4] = 1 day post-wounding, topical 5% EP every 90 minutes

## CCOC(=O)C(C)=O [ethyl pyruvate]
[1]
  proliferation of rabbit stromal cells: inhibited proliferation
Fibronectin [2]
  fibronectin deposition in the matrix (immunocytochemical): concentration dependent downregulation
Fibronectin [3]
  fibronectin deposition in the matrix (immunocytochemical): concentration dependent downregulation
cornea; 1 day post-wounding
  light scattering within the stromal layer (qualitative): dark and quiet stroma
cornea; [4]
  stromal thickness: 89-100 μm
  total corneal thickness: 194-207 μm
cornea; 2 days post-wounding
  corneal morphology / light scattering (qualitative): normal in morphology
  stromal thickness: 80-85 μm
  total corneal thickness: 142-154 μm
CD-45+ leukocytes; day 1 post-wounding
  inflammatory cells (CD-45+) by FACS: 28.50±12.02
CD-45+ leukocytes; day 2 post-wounding
  inflammatory cells (CD-45+) by FACS: 163.00±57.42

From US8815946B2, “Inhibition of proliferation and fibrotic response of activated corneal stromal cells” (University of Pittsburgh—of the Commonwealth System of …, priority 2008, dated 2014)
